Series [1] concerns HTB81 (human prostate carcinoma). Nature of the series: CCK-8 antiproliferative assay, HTB81 cell line. It counts as cell-based. The source says:
(§1) In a preliminary study, we tested the cytotoxicity of γ-lactam 4b as lead compound against seven human cancer cell lines: HEK293 (human embryonic kidney), MCF7 (human breast adenocarcinoma), HTB81 (human prostate carcinoma), HeLa (human epithelioid cervix carcinoma), RKO (human colon epithelial carcinoma), SKOV3 (human ovarian carcinoma) and A549 (carcinomic human alveolar basal epithelial cell). The cell proliferation inhibitory activity of γ-lactam 4b is shown as IC50 values (Figure 2).
For orientation: Tetrazolium dyes change colour on reduction, which living cells bring about.

Series [2] has as its system MRC5 non-malignant lung fibroblasts. The series is described as follows: CCK-8 assay on non-malignant cells for selective toxicity. Type of series: cell-based. Conditions: Homo sapiens; MRC5 non-malignant lung fibroblasts, CCK-8; read-out: IC50 MRC5.
Description: (§2) In vitro cytotoxicity of the γ-lactam derivatives was evaluated by testing their antiproliferative activities against several human cancer cell lines. Cell counting kit (CCK-8) assay was used for the evaluation of growth inhibition.
(§3) All stock solutions of the investigated compounds were prepared by dissolving the powdered materials in appropriate amounts of DMSO. The final concentration of DMSO never exceeded 5% (v/v) in reactions. The stock solution was stored at 5 °C until it was used.
(§4) All were supplemented with 10% of fetal bovine serum (FBS) (Sigma-Aldrich, Madrid, Spain) and with 1% of NORMOCIN solution (Thermo Fisher, Waltham, Massachusetts, MA, USA). […] For cytotoxicity experiments, A549 cells were seeded in 96-well plates at a density of 2.5–3 × 10^3 cells per well and incubated overnight to achieve 70% of confluence at the time of exposition to the cytotoxic compound.
(§5) Both were supplemented with 10% of fetal bovine serum (FBS) (Sigma-Aldrich, Spain) and with 1% of NORMOCIN solution (Thermo Fisher, Waltham, Massachusetts, MA, USA). […] For cytotoxicity experiments, A549 cells were seeded in 96-well plates at a density of 2.5–3 × 10^3 cells per well and incubated overnight to achieve 70% of confluence at the time of exposition to the cytotoxic compound.
Series [3] relates to A549 cells. The series is described as follows: Flow cytometry apoptosis/necrosis assay (Annexin V FITC / propidium iodide). It counts as cell-based, human. Conditions: A549, 5 µM; for Percentage of late-apoptotic and necrotic cells: FL-1 and FL-3 positive; for Percentage of early-apoptotic cells: FL-1 positive, FL-3 negative. As for the experimental part: In addition, flow cytometry assays were performed using compound 4b in A549 cells at 12, 24, and 48 h post-exposure. Early apoptotic cells were FL-1 positive and FL-3 negative, meaning that they had initialized the apoptotic process but were still alive at the time of the measurement. Percentages of these early-apoptotic cells after 12, 24, and 48 h. were, respectively, 31.17 ± 2.04%, 34.97 ± 3.62% and 40.13 ± 0.81%. On the other hand, late apoptotic and necrotic cells were both FL-1 and FL-3 positive, meaning that they activated the apoptotic machinery and were dead at the time of the measurement. Percentages of late-apoptotic and necrotic cells after 12, 24 and 48 h were, respectively, 33.03 ± 1.43%, 37.60 ± 3.37% and 36.90 ± 0.70% (Figure 4). Control live cells were all FL-1 and FL-3 negative, while around 95% of control necrotic cells were FL-3 positive, FL-1 negative (See ESI). […] In fact, among all the dead cells detected, which were FL-1 positive, almost all were simultaneously positive for the FL-3 channel too, while only a small percentage (2% or lower) of dead cells were exclusively FL-1 positive. Therefore, the majority of dead cells detected in this study were apoptotic cells. In addition, the total percentages of […], which comprised early and late apoptotic cells, were over 60%, and the percentage increased over time.
Flow cytometry assays were conducted using a FACSCalibur system flow cytometer (Becton Dickinson Bioscience, Franklin Lakes, NJ, USA), to identify apoptotic cells and to differentiate them from necrotic cells. A549 cells were exposed to 5 µM of the cytotoxic compound 4b and cell apoptosis and necrosis were evaluated 12, 24, and 48 h after exposure. For that purpose, treated cells were washed with phosphate-buffered saline (PBS) (Sigma-Aldrich, Spain) and detached with trypsin/EDTA (0.25%) (Gibco, New York, NY, USA). Cells were centrifuged at 1100 rpm for 5 min, and then the resulting pellet was resuspended in cell growth media and transferred to specific flow cytometer tubes. Propidium iodide (Sigma-Aldrich, Spain) at 1:300 dilution was used in each sample to detect necrotic cells and eBioscience™ Annexin V Apoptosis Detection Kit FITC (Fisher Scientific, Spain) was used to detect apoptotic cells following the manufacturer’s instructions. The fluorescent signals corresponding to necrotic cells and apoptotic cells were measured at 650 nm (FL3) and 525 nm (FL1), respectively. […] Cells treated with 1 µM of camptothecin (Sigma-Aldrich, Spain) served as a positive control for apoptosis and were used to establish cytometer settings and channel compensations. The experiments were carried out in triplicate for each condition. For each sample, 10,000 events were collected.

In series [4] the test system is A549 (carcinomic human alveolar basal epithelial cell). Nature of the series: CCK-8 antiproliferative assay, A549 cell line. It counts as cell-based. Conditions: Homo sapiens, A549, A549 cell line, CCK-8; read-out: IC50 A549.
Description: as §2, §3, §4, §5
The subject of series [5] is HEK293 (human embryonic kidney). The series is described as follows: CCK-8 antiproliferative assay, HEK293 cell line. It counts as cell-based.
Text: as §1

Series [6] concerns HeLa (human epithelioid cervix carcinoma). Nature of the series: CCK-8 antiproliferative assay, HeLa cell line. It counts as cell-based.
Text: as §1

The test system of series [7] is SKOV3 (human ovarian carcinoma). Nature of the series: CCK-8 antiproliferative assay, SKOV3 cell line. Conditions: Homo sapiens, SK-OV-3, read-out: IC50 SKOV3, SKOV3 cell line, CCK-8.
Description: as §2, §3, §4
Series [8] concerns RKO (human colon epithelial carcinoma). The series is described as follows: CCK-8 antiproliferative assay, RKO cell line. Type of series: cell-based.
Description: as §2, §3, §4
Series [9] deals with MCF7 (human breast adenocarcinoma). Nature of the series: CCK-8 antiproliferative assay, MCF7 cell line. It counts as cell-based.
Text: as §1

Series [10] relates to A549 cells. Nature of the series: Visualization of cell growth and morphology. It counts as cell-based, human. Here is the method:
Next, cell morphology analysis and flow cytometry assays were performed, to elucidate the mechanism of the antiproliferative activity of γ-lactam substrates. Cell morphology was analyzed at different time points after the addition of compound 4b to visualize the cellular modifications as a result of the treatment.
Qualitative analysis of A549 cell growth and morphology after exposure to 1 µM and 5 µM of the cytotoxic compound 4b was conducted using Cytation^TM 1 Cell Imaging Multi-Mode Reader (Biotek, Winooski, VT, USA). Cell images were acquired immediately after the addition of the compound and at the following time-points after exposure: 0.5, 1, 1.5, 2, 3, 4, 8, 12, 16, 24, and 48 h.

Series [11] in a line: Solubility in solvents compatible with in vitro assays. It counts as physicochemical. Conditions: in words.

The term IC50 denotes the concentration needed to halve the response being measured. On to `Cc1ccc(NC2=CC(c3ccccc3)N(c3ccc(C)cc3)C2=O)cc1` (stereo not drawn) [4b], for which the IC50 was 27.9 µM in [1]; more than 50 µM in [2]; 2.34 ± 0.28 µM in [4]; more than 50 µM in series [5] (Homo sapiens, HEK293, Figure 2); 30.2 µM in series [6]; 9.62 ± 1.18 µM in series [7]. Moreover, the half-inhibitory concentration (IC50) in series [8] is 22.1 ± 2.98 µM; in [9] (Homo sapiens, MCF7, Figure 2), more than 50 µM. The “Percentage of dead cells exclusively FL-1 positive” value in [3] (12-48 h) was not above 2%. Also, the “Total percentage of FL-3 positive cells (early and late apoptotic cells)” value in [3] (12-48 h, increased over time) is “over 60%”. Besides, the “Percentage of late-apoptotic and necrotic cells” value in series [3] (12 h post-exposure) was found to be 33.03 ± 1.43%; in series [3] (24 h post-exposure), 37.60 ± 3.37%; in [3] (48 h post-exposure) it was 36.90 ± 0.70%. In addition, the “Percentage of early-apoptotic cells” value in [3] (12 h post-exposure) is given as 31.17 ± 2.04%; in [3] (24 h post-exposure), 34.97 ± 3.62%; in series [3] (48 h post-exposure), 40.13 ± 0.81%. For the same compound, the “Growth inhibition activity against HEK293, in words” value in [5] was “no grown inhibition activity”. In series [9], the “Growth inhibition activity against MCF7, in words” value was “no grown inhibition activity”. For the same compound, the “Cell morphology and growth” value in [10] (1 µM, 0-48 h) is recorded as “healthy, uniform morphology”; in series [10] (5 µM, especially after 6 h of exposure) it was “alterations of the cellular morphology”. The Cell morphology result in series [10] (higher concentrations (10 and 15 µM, 24 h)) is listed as “high cytotoxicity”.
Usually melting point stands for the temperature, or range, at which the solid turns liquid. The compound `Cc1ccc(NC2=CC(CC(C)C)N(c3ccc(C)cc3)C2=O)cc1` (stereo not drawn) [4p] had a melting point of 178 to 179 °C. For the same compound, in series [2], the IC50 was 24.1 ± 1.64 µM. Besides, the half-maximal inhibitory concentration (IC50) in [4] stood at 20.1 ± 2 µM. In series [7], the IC50 was more than 50 µM.
In the case of `Cc1ccc(NC2=C(P(=O)(c3ccccc3)c3ccccc3)CN(c3ccc(C)cc3)C2=O)cc1` [5e], the “Solubility in the solvents compatible with the tests for in vitro assays” value in series [11] is recorded as “low solubility”.
Take `O=C1C(Nc2cccc(C(F)(F)F)c2)=CCN1c1cccc(C(F)(F)F)c1` [11a]: the melting point lay in the range of 160 to 162 °C. Moreover, in series [2], the IC50 is more than 50 µM. For the same compound, the IC50 in [4] was found to be 22.9 ± 1.13 µM. Also, in [7], the IC50 was more than 50 µM.
Take `CCOC(=O)C1(C)C=C(Nc2ccc(C)cc2)C(=O)N1c1ccc(C)cc1` (stereo not drawn) [compound 16, Ethyl 2-methyl-5-oxo-1-(p-tolyl)-4-(p-tolylamino)-2,5-dihydro-1H-pyrrole-2-carboxylate]: the melting point is 188 to 190 °C (dec.). Besides, in [2], the IC50 is more than 50 µM. Further, the IC50 in series [4] stood at 14 ± 1.05 µM. In series [7], the IC50 was more than 50 µM. This compound also yielded a half-inhibitory concentration (IC50) in series [8] of more than 50 µM.
Consider `Cc1ccc(/N=C2/C=C(c3ccccc3)N(c3ccc(C)cc3)C2=O)cc1` [compound 21, (Z)-5-phenyl-1-(p-tolyl)-3-(p-tolylimino)-1,3-dihydro-2H-pyrrol-2-one], for which the melting point was 207 °C (dec.). Besides, the IC50 in [2] was determined as 6.12 ± 0.76 µM. In addition, the IC50 in series [4] was found to be 0.6 ± 0.08 µM. Besides, the IC50 in series [7] amounted to 16.7 ± 1.1 µM.

Source of the values: paper PMC8400033, “A Multicomponent Protocol for the Synthesis of Highly Functionalized γ-Lactam Derivatives and Their Applications as Antiproliferative Agents” (Pharmaceuticals, 2021).
